Laboratory results: PubChem BioAssay (NCI)
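Five concentrations, 48 hours, 96-well plates. GI50 is the concentration that inhibits growth by half. TGI marks complete inhibition of growth.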

Columns and labels:
Assay in all cases: growth of human tumour cells (NCI), 48 h
[1] = test system: SR leukemia
[2] = test system: SF-268 CNS
[3] = test system: A549 NSCLC
[4] = test system: SN12C renal
[5] = test system: M14 melanoma
[6] = test system: DU-145 prostate
[7] = test system: RXF 393 renal
[8] = test system: MOLT-4 leukemia
[9] = test system: BT-549 breast
[10] = test system: EKVX NSCLC
[11] = test system: MDA-MB-231 breast
[12] = test system: 786-0 renal
[13] = test system: SK-MEL-5 melanoma
[14] = test system: KM12 colon
[15] = test system: COLO 205 colon
[16] = test system: HCT-116 colon
[17] = test system: OVCAR-8 ovarian
[18] = test system: NCI/ADR-RES ovarian
[19] = test system: TK-10 renal
[20] = test system: LOX IMVI melanoma
[21] = test system: MALME-3M melanoma
[22] = test system: IGROV1 ovarian
[23] = test system: NCI-H226 lung
[24] = test system: OVCAR-5 ovarian
[25] = test system: SF-295 CNS
[26] = test system: CAKI-1 renal
[27] = test system: SK-MEL-2 melanoma
[28] = test system: SK-MEL-28 melanoma
[29] = test system: NCI-H23 lung
[30] = test system: T-47D breast
[31] = test system: RPMI-8226 leukemia
[32] = test system: UO-31 renal
[33] = test system: SK-OV-3 ovarian
[34] = test system: UACC-257 melanoma
[35] = test system: SW-620 colon
[36] = test system: CCRF-CEM leukemia
[37] = test system: SNB-19 CNS
[38] = test system: U251 CNS
[39] = test system: NCI-H460 lung
[40] = test system: HCC-2998 colon
[41] = test system: HS 578T breast
[42] = test system: HL-60(TB) leukemia
[43] = test system: OVCAR-4 ovarian
[44] = test system: A498 renal
[45] = test system: HT29 colon
[46] = test system: MDA-MB-435
[47] = test system: SF-539 CNS
[48] = test system: K-562 leukemia
[49] = test system: UACC-62 melanoma
[50] = test system: PC-3 prostate
[51] = test system: NCI-H522 lung
[52] = test system: HOP-92 NSCLC
[53] = test system: HCT-15 colon
[54] = test system: ACHN renal
[55] = test system: HOP-62 NSCLC
[56] = test system: SNB-75 CNS
[57] = test system: MCF7 breast

CS(=O)(=O)Nc1cc(-c2ccc3ncc(C#N)c(NCc4ccccc4F)c3c2)cnc1Cl
GI50 [1]: 123 nM
TGI [1]: 3200 nM
GI50 [2]: 163 nM
TGI [2]: 3670 nM
GI50 [3]: 442 nM
TGI [3]: 4000 nM
GI50 [4]: 235 nM
TGI [4]: > 64000 nM
GI50 [5]: 243 nM
TGI [5]: 7010 nM
GI50 [6]: 302 nM
TGI [6]: 12100 nM
GI50 [7]: 93.4 nM
TGI [7]: 925 nM
GI50 [8]: 190 nM
TGI [8]: 2540 nM
GI50 [9]: 60.9 nM
TGI [9]: 623 nM
GI50 [10]: 319 nM
TGI [10]: 5480 nM
GI50 [11]: 343 nM
TGI [11]: 3800 nM
GI50 [12]: 308 nM
TGI [12]: 9520 nM
GI50 [13]: 163 nM
TGI [13]: 336 nM
GI50 [14]: 280 nM
TGI [14]: 3860 nM
GI50 [15]: 271 nM
TGI [15]: 1200 nM
GI50 [16]: 248 nM
TGI [16]: 1500 nM
GI50 [17]: 328 nM
TGI [17]: 12200 nM
GI50 [18]: 1450 nM
TGI [18]: 29500 nM
GI50 [19]: 100 nM
TGI [19]: 976 nM
GI50 [20]: 191 nM
TGI [20]: 1010 nM
GI50 [21]: 71.7 nM
TGI [21]: 475 nM
GI50 [22]: 108 nM
TGI [22]: 876 nM
GI50 [23]: 358 nM
TGI [23]: 18200 nM
GI50 [24]: 386 nM
TGI [24]: 9740 nM
GI50 [25]: 197 nM
TGI [25]: 1920 nM
GI50 [26]: 131 nM
TGI [26]: 1420 nM
GI50 [27]: 91.9 nM
TGI [27]: 320 nM
GI50 [28]: 176 nM
TGI [28]: 4770 nM
GI50 [29]: 271 nM
TGI [29]: 12300 nM
GI50 [30]: 108 nM
TGI [30]: 5840 nM
GI50 [31]: 189 nM
TGI [31]: 1290 nM
GI50 [32]: 154 nM
GI50 [33]: 232 nM
TGI [33]: 1400 nM
GI50 [34]: 244 nM
TGI [34]: 4940 nM
GI50 [35]: 317 nM
TGI [35]: 10800 nM
GI50 [36]: 153 nM
TGI [36]: 45800 nM
GI50 [37]: 293 nM
TGI [37]: 11500 nM
GI50 [38]: 155 nM
TGI [38]: 4270 nM
GI50 [39]: 374 nM
TGI [39]: 11500 nM
GI50 [40]: 339 nM
TGI [40]: 8320 nM
GI50 [41]: 49.8 nM
TGI [41]: 445 nM
GI50 [42]: 253 nM
TGI [42]: 6390 nM
GI50 [43]: 262 nM
TGI [43]: 6050 nM
GI50 [44]: 89.6 nM
TGI [44]: 461 nM
GI50 [45]: 324 nM
TGI [45]: 5490 nM
GI50 [46]: 251 nM
TGI [46]: 10600 nM
GI50 [47]: 190 nM
TGI [47]: 1840 nM
GI50 [48]: 260 nM
TGI [48]: > 100000 nM
GI50 [49]: 118 nM
TGI [49]: 1270 nM
GI50 [50]: 231 nM
TGI [50]: 10000 nM
GI50 [51]: 335 nM
TGI [51]: 8140 nM
GI50 [52]: 23.8 nM
TGI [52]: 286 nM
GI50 [53]: 264 nM
TGI [53]: 11700 nM
GI50 [54]: 436 nM
TGI [54]: > 52500 nM
GI50 [55]: 220 nM
TGI [55]: 4710 nM
GI50 [56]: 26.7 nM
TGI [56]: 370 nM
GI50 [57]: 106 nM
TGI [57]: 11500 nM
